Measurements from US7968535B2, “Use of azapaullones for preventing and treating pancreatic autoimmune disorders” (Develogen Atkiengesellschaft, priority 2005, dated 2011).

Columns and labels:
INS-1E cells [1] = experiment: Ins-1E cell proliferation assay (BrdU incorporation); type: cell-based, rat; settings: maximum at 1 μM
Method: The proliferation rate of Ins-1E cells was determined by monitoring DNA synthesis using a 5-bromo-2′-deoxyuridine (BrdU) incorporation assay. BrdU is a halogenated nucleotide analogue of thymidine that is incorporated into DNA during the S-phase of the cell cycle. Pulse-labeling of DNA with BrdU and subsequent immunohistochemical detection of labeled nuclei was used to study the rate of cell proliferation. The treatment of INS-1E cells with 4-Azakenpaullone for 24 hours increases BrdU incorporation of Ins-1E cells in a concentration dependent manner, reaching a maximum of about 1.4 fold between 5 μM and 10 μM 4-AKP.
The proliferation of Ins-1E insulinoma cells was determined by monitoring DNA synthesis as an indirect parameter of cell proliferation. The incorporation of the thymidine analogue 5-bromo-2′-deoxyuridine (BrdU) during replication into cellular DNA was used to label the DNA of mitotically active cells. After its incorporation into DNA, BrdU was detected by immunoassay.
(§1) 10,000 Ins-1E cells were seeded per 96-well (black 96-well tissue culture plates, Falcon #353948) in 100 μl culture medium (RPMI 1640 containing 11 mM glucose, 5% FCS, 10 mM HEPES, 50 μM 2-mercaptoethanol, 1 mM MEM sodium pyruvate, 100 U/ml penicillin, 100 μg/ml streptomycin) and cultivated at 37° C., 5% CO2 in humidified atmosphere for 3 days. Media was changed to 100 μl starvation medium (culture medium with only 5 mM glucose, 1% FCS) and the cells were re-incubated for 1 day. Then media was exchanged to starvation medium containing test substances and the cells were further incubated for 24 h. For the last 4 hours BrdU was added to reach a concentration of 10 μM. Cell proliferation ELISA (Cell Proliferation ELISA, BrdU, chemiluminescence, Roche, cat. No. 1669915) was performed according to the manufacturers guidelines.

INS-1E cells [2] = experiment: Glucolipotoxicity induced apoptosis of INS-1E cells (overall assessment); type: cell-based, rat; settings: palmitate and glucose, 24 hours
Method: (§2) The effects of the substance on cell viability, cell growth and specific apoptotic events such as caspases activity and DNA-fragmentation was monitored. INS-1E cell apoptosis was induced by treatment of cell cultures with toxic concentrations of glucose and palmitate for 24 hours. The substance of interest was added to the medium 1 hour prior to the addition of the toxic agents.
The effects of the test compounds on beta cell function were assessed using biological assays monitoring cellular metabolic activity as well as specific apoptotic events in Ins-1E cells.
as §1, with “substances.” for “substances and the cells were further incubated for 24 h. For the last 4 hours BrdU was added to reach a concentration of 10 μM. Cell proliferation ELISA (Cell Proliferation ELISA, BrdU, chemiluminescence, Roche, cat. No. 1669915) was performed according to the manufacturers guidelines.”
(§3) Apoptosis of Ins-1E cells was induced by addition of a combination of BSA coupled palmitate and glucose (pal/gluc) or a combination of cytokines (cyt) 1 hour after starting the treatment with test substances: pal/gluc: 0.3 mM palmitate:BSA (palmitic acid sodium salt:fatty acid free BSA 6:1) and 25 mM glucose. 10×cyt: 0.04 ng/ml IL-1β and 1 ng/ml IFNγ. The cells were further incubated with test substances and apoptotic inducer for 24 hours.

[3] = system: panel of 28 protein kinases; experiment: KinaseProfiler biochemical kinase activity assays; settings: tested in parallel with 1-Azakenpaullone
Method: Experiments were carried out by Upstate Ltd. according to the protocols described in KinaseProfiler™ Assay Protocols Fall 2004 by Ustate Cell Signaling solutions.
Compounds 10c and e are structurally very similar to 1-Azakenpaullone and differ only by one substituent at position 9 of the D ring from their template 1-Azakenpaullone. […] These kinases were selected among about 250 different kinases based on their structural or functional similarity to GSK3, e.g. all available members of the CDK family were included in the survey because CDKs are most similar to GSK3 and several kinase inhibitors are known that inhibit members of both families. The direct comparison of different compounds in such an experiment provides information on the relative selectivity of the respective compounds.

human GSK3 = experiment: IC50 Profiler Express kinase assay; type: biochemical; settings: 10-point curves in duplicate
Method: (§4) Experiments were carried out by Upstate Ltd. according to the protocols described in KinaseProfiler™ Assay Protocols, IC50 Profiler Express™ (10-point curves in duplicate) Fall 2004 by Ustate Cell Signaling solutions.

[4] = molecular target: T1, cyclin dependent kinase 1 (Homo sapiens, UniProt P06493); experiment: IC50 Profiler Express kinase assay; type: biochemical
T1 construct: purchased Upstate Ltd. (IC50 Profiler Express service)
T1 sequence (P06493 whole entry, species assumed): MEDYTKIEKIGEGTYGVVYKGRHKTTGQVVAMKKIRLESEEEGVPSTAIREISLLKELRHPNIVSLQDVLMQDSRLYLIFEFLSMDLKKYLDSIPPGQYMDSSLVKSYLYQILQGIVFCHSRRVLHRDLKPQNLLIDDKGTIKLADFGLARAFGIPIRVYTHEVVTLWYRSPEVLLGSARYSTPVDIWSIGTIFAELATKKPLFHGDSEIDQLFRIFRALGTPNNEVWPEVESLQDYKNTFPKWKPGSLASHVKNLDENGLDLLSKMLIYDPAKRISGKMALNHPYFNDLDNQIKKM
T1 sequence (P14635 whole entry partner, species assumed): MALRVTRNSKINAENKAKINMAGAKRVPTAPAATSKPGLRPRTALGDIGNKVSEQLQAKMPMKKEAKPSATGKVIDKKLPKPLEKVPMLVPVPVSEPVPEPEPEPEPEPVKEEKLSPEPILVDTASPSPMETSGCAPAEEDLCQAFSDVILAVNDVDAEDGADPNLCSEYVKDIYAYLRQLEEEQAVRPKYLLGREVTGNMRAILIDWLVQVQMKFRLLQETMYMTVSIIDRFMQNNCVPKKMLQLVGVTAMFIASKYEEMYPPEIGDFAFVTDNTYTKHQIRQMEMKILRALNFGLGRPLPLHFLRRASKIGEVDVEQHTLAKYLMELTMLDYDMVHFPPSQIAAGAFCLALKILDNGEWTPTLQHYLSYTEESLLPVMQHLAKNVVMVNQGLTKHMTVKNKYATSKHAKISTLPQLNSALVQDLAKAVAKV
Method: as §4

primary rat beta cells = experiment: Replication of primary rat beta cells (Ki67/C-peptide immunofluorescence); type: cell-based; settings: islets treated for 72 hours
Method: Cells expressing the proliferation marker Ki67 as well as C-peptide were considered to be replicating beta cells. The percentage of replicating beta cells in islets not exposed to compound 10c (Co.) and islet treated for 72 hours with the indicated amounts of compound 10c was determined by immunofluorescence microscopy.
Isolated rat islets were cultured for 72 hours in the presence of compound 10c before the islets were disaggregated and dispersed on microscope slides. Replicating beta cells were identified by immunohistological staining of dispersed islets with antibodies against C-peptide, a proteolytic fragment of proinsulin, and the cell division marker Ki-67.
Islets of Langerhans are isolated by standard Liberase digestion method from rat pancreata (Liberase™ Cl enzyme blend BMB Cat. #1814-435, ROCHE).
Freshly isolated islets are cultured in vitro with or without the addition of the factor of interest for 48 h. Following the culture period the islets are dispersed gently by titration in Ca^2+ and Mg^2+ free PBS. […]
An Olympus microscope equipped with an automatic image acquisition device (Olympus) is used for counting of C-peptide positive beta cells. Proliferating C-peptide/Ki-67 double positive beta cells are counted manually. Thereby the fraction of proliferating beta cells can be determined.

INS-1E cells [5] = experiment: Caspase activity assay in glucose/palmitate stressed cells; type: cell-based, rat; settings: 2.5 μM
Method: as §2
Caspase activation is a characteristic of early apoptotic cells. The experiment was carried out as described above with the exception that the caspases activity assay was applied instead of the DNA-fragmentation assay (see Example 3 for details).
as §1, with “substances.” for “substances and the cells were further incubated for 24 h. For the last 4 hours BrdU was added to reach a concentration of 10 μM. Cell proliferation ELISA (Cell Proliferation ELISA, BrdU, chemiluminescence, Roche, cat. No. 1669915) was performed according to the manufacturers guidelines.”
as §3
Caspase activity is a characteristic of early apoptotic cells. Their activity was quantified by an enzymatic assay (homogeneous caspases assay, Roche, cat. No. 03 005 372 001). Caspase activity was measured 3 hours after addition of caspases substrate according to the manufacturers guidelines.

kinase selectivity / activity profile [3]: selective kinase inhibitors | inhibition of human GSK3 (human GSK3): potent inhibitor
SMILES: N#Cc1ccc2[nH]c3c(c2c1)CC(=O)Nc1cccnc1-3 [Compound 10c, 6-Oxo-5,6,7,12-tetrahydropyrido[3′,2′:2,3]azepino[4,5-b]indole-9-carbonitrile]
BrdU incorporation relative to untreated controls (maximum) (INS-1E cells [1]): about 1.5 fold | effect on glucolipotoxicity induced apoptosis (INS-1E cells [2]): strongly antagonizes glucolipotoxicity induced apoptosis | affinity to CDK1 relative to 1-Azakenpaullone [4]: higher affinity to CDK1 than the reference compound 1-Azakenpaullone | inhibition of the enzymatic activity of cyclin dependent kinase 1 ([4]; compared with GSK3): comparatively higher concentration of this inhibitor are required | replication of primary rat beta cells in culture (primary rat beta cells): stimulates the replication | reduction of caspase activity (INS-1E cells [5]): 77%
